According to patent publication US7795290B2 (Genentech, Inc., priority 2004, dated 2010):

Target: T1, AKT1 (Homo sapiens, UniProt P31749)
T1 construct: purchased Upstate 14-276
Assay: HTS ATP-utilizing enzyme assay, off-chip mobility-shift (Caliper HTS 250)
Type: biochemical
Settings: kinase named = inhibitory activity/selectivity; test compound 10 μM; active = greater than three-sigma from mean
Summary of the method: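 AKT1 activity was measured by off-chip mobility shift (Caliper HTS 250) as the ratio of peptide substrate to phosphorylated product. Test compound was at 10 μM, with 2.5 h incubation at 20–22° C. EDTA wells served as 100% control and DMSO wells as 0%. Hits were called at three-sigma limits.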

T1 sequence (P31749 whole entry): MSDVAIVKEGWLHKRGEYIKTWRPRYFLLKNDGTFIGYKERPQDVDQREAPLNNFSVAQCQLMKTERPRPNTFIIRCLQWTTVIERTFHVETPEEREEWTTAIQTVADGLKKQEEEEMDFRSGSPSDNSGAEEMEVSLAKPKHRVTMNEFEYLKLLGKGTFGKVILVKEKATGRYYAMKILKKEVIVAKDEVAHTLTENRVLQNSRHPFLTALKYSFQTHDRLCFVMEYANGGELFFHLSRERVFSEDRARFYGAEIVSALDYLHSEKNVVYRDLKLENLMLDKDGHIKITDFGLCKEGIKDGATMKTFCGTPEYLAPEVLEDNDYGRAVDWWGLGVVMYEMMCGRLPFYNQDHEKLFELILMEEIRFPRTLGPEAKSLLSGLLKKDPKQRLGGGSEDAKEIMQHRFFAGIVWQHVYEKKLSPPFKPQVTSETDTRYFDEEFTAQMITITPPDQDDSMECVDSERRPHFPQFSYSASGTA

Row | SMILES | Activity
1 | O=C(CCCN(C(=O)c1cccs1)c1nc(-c2cc3ccccc3o2)cs1)NCc1cccnc1 [N-(4-(benzofuran-2-yl)thiazol-2-yl)-N-(4-oxo-4-(pyridin-3-ylmethylamino)butyl)thiophene-2-carboxamide] | AKT1
2 | O=C(CCCN(C(=O)c1cccs1)c1nc(-c2cc3ccccc3o2)cs1)N1CCSC1 [N-(4-(benzofuran-2-yl)thiazol-2-yl)-N-(4-oxo-4-(thiazolidin-3-yl)butyl)thiophene-2-carboxamide] | AKT1
3 | CCCN(C(=O)c1cccs1)c1nc(-c2cc3ccccc3o2)cs1 [N-(4-(benzofuran-2-yl)thiazol-2-yl)-N-propylthiophene-2-carboxamide] | AKT1
4 | O=C(c1cccs1)N(CCCN1CCOCC1)c1nc(C2CCCCC2)cs1 [N-(4-cyclohexylthiazol-2-yl)-N-(3-morpholinopropyl)thiophene-2-carboxamide] | AKT1
5 | O=C(c1cccs1)N(CCCN1CCOCC1)c1nc(C2CCCC2)cs1 [N-(4-cyclopentylthiazol-2-yl)-N-(3-morpholinopropyl)thiophene-2-carboxamide] | AKT1
6 | Cc1nc(-c2cnccn2)sc1-c1csc(N(CCCN2CCOCC2)C(=O)c2cccs2)n1 [N-(4′-methyl-2′-(pyrazin-2-yl)-4,5′-bithiazol-2-yl)-N-(3-morpholinopropyl)thiophene-2-carboxamide] | AKT1
7 | CCc1nnc(NC(=O)c2csc(N(CCCN3CCOCC3)C(=O)c3cccs3)n2)s1 [N-(5-ethyl-1,3,4-thiadiazol-2-yl)-2-(N-(3-morpholinopropyl)thiophene-2-carboxamido)thiazole-4-carboxamide] | AKT1
8 | COc1ccc(-c2csc(N(Cc3ccco3)C(=O)c3cccs3)n2)cc1 [N-(furan-2-ylmethyl)-N-(4-(4-methoxyphenyl)thiazol-2-yl)thiophene-2-carboxamide] | AKT1
9 | CCOC(=O)C1CCCCN1CCCN(C(=O)c1cccs1)c1nc(-c2cc3ccccc3o2)cs1 (centres unmarked) [ethyl 1-(3-(N-(4-(benzofuran-2-yl)thiazol-2-yl)thiophene-2-carboxamido)propyl)piperidine-2-carboxylate] | AKT1
10 | CCOC(=O)C1CCCN(CCCN(C(=O)c2cccs2)c2nc(-c3cc4ccccc4o3)cs2)C1 (centres unmarked) [ethyl 1-(3-(N-(4-(benzofuran-2-yl)thiazol-2-yl)thiophene-2-carboxamido)propyl)piperidine-3-carboxylate] | AKT1

Next, values leading:

Row | Activity | SMILES
11 | AKT1 | O=C(c1cccs1)N(CCCCCN1CCOCC1)c1nc(-c2cc3ccccc3o2)cs1 [N-(4-(benzofuran-2-yl)thiazol-2-yl)-N-(5-morpholinopentyl)thiophene-2-carboxamide]
12 | AKT1 | O=C(c1cccs1)N(CCCN1CCOCC1)c1nc(-c2coc3ccccc23)cs1 [N-(4-(benzofuran-3-yl)thiazol-2-yl)-N-(3-morpholinopropyl)thiophene-2-carboxamide]
13 | AKT1 | O=C(c1cccs1)N(CCCN1CCOCC1)c1nc(-c2ccc(-c3ccccc3)cc2)cs1 [N-(4-(biphenyl-4-yl)thiazol-2-yl)-N-(3-morpholinopropyl)thiophene-2-carboxamide]
14 | AKT1 | O=C(c1ccco1)N(CCCCN1CCOCC1)c1nc(-c2cc(-c3ccccc3)no2)cs1 [N-(4-morpholinobutyl)-N-(4-(3-phenylisoxazol-5-yl)thiazol-2-yl)furan-2-carboxamide]
15 | AKT1 | O=C(c1cccs1)N(CCCCN1CCOCC1)c1nc(-c2cc(-c3ccccc3)no2)cs1 [N-(4-morpholinobutyl)-N-(4-(3-phenylisoxazol-5-yl)thiazol-2-yl)thiophene-2-carboxamide]
16 | AKT1 | O=C(c1cccs1)N(CCCN1CCCC1)c1nc(-c2ccccc2)cs1 [N-(4-phenylthiazol-2-yl)-N-(3-(pyrrolidin-1-yl)propyl)thiophene-2-carboxamide]
17 | AKT1 | O=C(Nc1ccc2ncsc2c1)c1csc(N(CCCN2CCOCC2)C(=O)c2cccs2)n1 [N-(benzo[d]thiazol-6-yl)-2-(N-(3-morpholinopropyl)thiophene-2-carboxamido)thiazole-4-carboxamide]
